# Results taken from article PMC8426295, “Cytotoxic and radiosensitising effects of a novel thioredoxin reductase inhibitor in breast cancer” (Investigational New Drugs, 2021).
# What was measured:
# TrxR = target: T1, TrxR (Homo sapiens, UniProt Q16881); experiment: Thioredoxin reductase activity assay (insulin reduction) on lysates of drug-treated breast cancer cells; type: cell-based
# T1 sequence (Q16881 1-649): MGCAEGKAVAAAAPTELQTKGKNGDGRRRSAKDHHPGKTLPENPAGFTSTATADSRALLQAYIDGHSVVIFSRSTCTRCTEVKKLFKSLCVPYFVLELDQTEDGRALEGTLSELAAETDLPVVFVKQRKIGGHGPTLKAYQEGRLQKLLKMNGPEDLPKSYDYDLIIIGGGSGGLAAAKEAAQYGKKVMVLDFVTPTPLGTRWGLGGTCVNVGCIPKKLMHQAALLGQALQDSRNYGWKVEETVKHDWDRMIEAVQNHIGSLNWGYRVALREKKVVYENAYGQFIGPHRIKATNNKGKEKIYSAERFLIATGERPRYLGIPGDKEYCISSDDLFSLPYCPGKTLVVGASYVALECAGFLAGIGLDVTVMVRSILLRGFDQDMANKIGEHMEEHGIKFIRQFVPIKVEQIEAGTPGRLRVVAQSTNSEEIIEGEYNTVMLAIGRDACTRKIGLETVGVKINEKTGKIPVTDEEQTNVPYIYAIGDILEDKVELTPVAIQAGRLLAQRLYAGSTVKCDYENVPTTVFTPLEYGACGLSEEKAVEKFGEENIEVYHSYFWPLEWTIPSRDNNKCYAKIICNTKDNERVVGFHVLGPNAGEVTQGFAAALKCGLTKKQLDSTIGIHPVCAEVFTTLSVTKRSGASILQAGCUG
# Method: TrxR enzyme activity was assessed using an insulin reduction assay. Briefly, 2 × 10^6 cells were seeded, in triplicate, in 75c m^2 tissue culture flasks. After 24 h, sub-confluent cells were treated with either IQ9 (0–1000 nM) or 1000 nM auranofin (as a positive control) for 4 or 48 h, then trypsinised, washed, and resuspended in M-PER™ Mammalian Protein Extraction Reagent (ThermoFisher, USA) supplemented with 1X Halt protease inhibitor and EDTA. Protein concentration was determined using the Bradford assay. 80 μg of protein lysates isolated from each treatment conditions and reaction mix (HE buffer (100 mM HEPES pH 7.2, 5 mM EDTA), 20 μM Trx, 1.7 mM insulin, 10 mM β-NADPH) were added to the 96-well plate and incubated for 1 h at 37 °C. The reaction was stopped by adding stop buffer containing 6 M guanidine hydrochloride, 50 mM Tris, and 10 mM DTNB (Sigma, UK), with a final pH of 8.0. The plate was read at room temperature using a BMG Fluostar Optima Microplate Reader at 412 nm wavelength. The TrxR activity was expressed as the percentage of control, no drug-treated.
# Trx = experiment: Western blotting of Trx expression; type: cell-based, human; conditions: 48 h
# Method: (§1) Cells were treated with IQ9 (clonogenic IC50 concentrations) for 48 h, harvested, and resuspended in 1 mL of RIPA buffer (Sigma, UK) supplemented with 1X Halt phosphatase inhibitor cocktail, protease inhibitor cocktail, and EDTA. Samples were run on an SDS-polyacrylamide gel and transferred onto a 0.2 μm nitrocellulose membrane (GE Healthcare). The membrane was then blocked using 5% milk powder in 0.1% PBS/ Tween20, for 1 h at room temperature and then incubated with primary antibody overnight at 4 °C. Anti-β-actin antibody (Abcam) was used as a loading control. Primary antibodies were rabbit anti-human Trx (Abcam; 1:1000), mouse anti-human antibody (Abcam; 1:500), and rabbit anti-human Txnip (Abcam; 1:500). For Trx and Txnip, bands were detected using an Odyssey FC Imager (LI-COR). Images were obtained and fluorescence intensity quantified using Image Studio Software (version 4). The signals for Trx and Txnip were normalised against β-actin. For TrxR, bands were detected using an Amersham Enhanced Chemiluminescence system (GE Healthcare).
# Txnip = experiment: Western blotting of Txnip expression; type: cell-based, human; conditions: any of the breast cancer cell lines, clonogenic IC50 concentration, 48 h
# Method: as §1
structure (smiles),measurement,setting,value
COC1=CC(=O)c2c(c(COc3c(F)cc(F)cc3F)cn2C)C1=O [IQ9],inhibition of TrxR activity,"TrxR; 1000 nM, 4 h, all TNBC cell lines",complete inhibition
same,inhibition at 1 µM,"TrxR; 1000 nM, 4 h, luminal cell lines",~70%
same,inhibition in TrxR activity,"TrxR; 48 h exposure, T47D",no significant inhibition
same,expression of Trx,"Trx; MDA-MB-231, clonogenic IC50 concentration, P = 0.003",increased expression
same,expression of Trx,"Trx; the other four cell lines (MDA-MB-468, MDA-MB-436, T47D, MCF-7), clonogenic IC50 concentration",no effect
same,Txnip expression,Txnip,not affected
